Reference: patent publication US20170050957A1, “4-AMINO-6-(HETEROCYCLIC)PICOLINATES AND 6-AMINO-2-(HETEROCYCLIC)PYRIMIDINE-4-CARBOXYLATES AND THEIR USE AS HERBICIDES” (Dow AgroSciences LLC, priority 2013, published 2017)
Read-outs that look alike come from different tables or passages of the source.

Columns and labels:
[1] = tested on: Key Broadleaf Weed and Crop Species; assay: Post-emergent Test II herbicidal activity (Table 15); format: in vivo; conditions: post-emergence, 336 h, 14 d; for pest or weed control at 35 g/ha: 35 g ai/ha; for pest or weed control at 70 g/ha: 70 g ai/ha; for pest or weed control at 140 g/ha: 140 g ai/ha
How it was run: (§1)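 Plants grown in greenhouse (~15 h photoperiod, 23-29 °C day, 22-28 °C night) to first or second true leaf stage, then sprayed post-emergence at 187 L/ha with a high rate and 1/2×, 1/4×, 1/8× and 1/16× dilutions. Injury scored visually after 14 d, 0-100% versus untreated plants.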

[2] = tested on: Key Grass and Sedge Weeds as well as Grass Crops; assay: Post-emergent Test II herbicidal activity (Table 16); format: in vivo; conditions: post-emergence, 336 h, 14 d; for pest or weed control at 35 g/ha: 35 g ai/ha; for pest or weed control at 70 g/ha: 70 g ai/ha; for pest or weed control at 140 g/ha: 140 g ai/ha
How it was run: as §1

[3] = Abutilon theophrasti, velvetleaf (Abutilon theophrasti), read-out: Visual Growth Reduction (%) 14 Days After Application, ABUTH
[4] = Amaranthus retroflexus, redroot pigweed (Amaranthus retroflexus), read-out: Visual Growth Reduction (%) 14 Days After Application, AMARE
[5] = Brassica napus, oilseed rape, canola (Brassica napus), read-out: Visual Growth Reduction (%) 14 Days After Application, BRSNN
[6] = Chenopodium album, lambsquarters (Chenopodium album), read-out: Visual Growth Reduction (%) 14 Days After Application, CHEAL
[7] = Euphorbia heterophylla, wild poinsettia (Euphorbia heterophylla), read-out: Visual Growth Reduction (%) 14 Days After Application, EPHHL
[8] = Helianthus annuus, sunflower (Helianthus annuus), read-out: Visual Growth Reduction (%) 14 Days After Application, HELAN
[9] = Cyperus esculentus, yellow nutsedge (Cyperus esculentus), read-out: Visual Growth Reduction (%) 14 Days After Application, CYPES
[10] = Echinochloa crus-galli, barnyardgrass (Echinochloa crus-galli), read-out: Visual Growth Reduction (%) 14 Days After Application, ECHCG
[11] = Oryza sativa, rice (Oryza sativa), read-out: Visual Growth Reduction (%) 14 Days After Application, ORYSA
[12] = Setaria faberi, giant foxtail (Setaria faberi), read-out: Visual Growth Reduction (%) 14 Days After Application, SETFA
[13] = Triticum aestivum, wheat, spring (Triticum aestivum), read-out: Visual Growth Reduction (%) 14 Days After Application, TRZAS
[14] = Zea mays, maize, corn (Zea mays), read-out: Visual Growth Reduction (%) 14 Days After Application, ZEAMX

Row | melting point [°C] | SMILES | pest or weed control at 35 g/ha [1, 3] [%] | pest or weed control at 70 g/ha [1, 3] [%] | pest or weed control at 140 g/ha [1, 3] [%] | pest or weed control at 35 g/ha [1, 4] [%] | pest or weed control at 70 g/ha [1, 4] [%] | pest or weed control at 140 g/ha [1, 4] [%] | pest or weed control at 35 g/ha [1, 5] [%] | pest or weed control at 70 g/ha [1, 5] [%] | pest or weed control at 140 g/ha [1, 5] [%] | pest or weed control at 35 g/ha [1, 6] [%] | pest or weed control at 70 g/ha [1, 6] [%] | pest or weed control at 140 g/ha [1, 6] [%] | pest or weed control at 35 g/ha [1, 7] [%] | pest or weed control at 70 g/ha [1, 7] [%] | pest or weed control at 140 g/ha [1, 7] [%] | pest or weed control at 35 g/ha [1, 8] [%] | pest or weed control at 70 g/ha [1, 8] [%] | pest or weed control at 140 g/ha [1, 8] [%] | pest or weed control at 35 g/ha [2, 9] [%] | further results
1 | 174 to 179 | COC(=O)c1nc(-c2ccc3cc[nH]c3c2)c(Cl)c(N)c1Cl [Compound 1.05] | 45 to 59 | 95 to 100 | 85 to 94 | 60 to 74 | 75 to 84 | 95 to 100 | 30 to 44 | 45 to 59 | 60 to 74 | 85 to 94 | 95 to 100 | 95 to 100 | 30 to 44 | 30 to 44 | 45 to 59 | 95 to 100 | 95 to 100 | 95 to 100 | 0 to 29 | pest or weed control at 70 g/ha [2, 9]: 0 to 29%; pest or weed control at 140 g/ha [2, 9]: 0 to 29%; pest or weed control at 35 g/ha [2, 10]: 0 to 29%; pest or weed control at 70 g/ha [2, 10]: 0 to 29%; pest or weed control at 140 g/ha [2, 10]: 60 to 74%; pest or weed control at 35 g/ha [2, 11]: 0 to 29%; pest or weed control at 70 g/ha [2, 11]: 0 to 29%; pest or weed control at 140 g/ha [2, 11]: 0 to 29%; pest or weed control at 35 g/ha [2, 12]: 30 to 44%; pest or weed control at 70 g/ha [2, 12]: 45 to 59%; pest or weed control at 140 g/ha [2, 12]: 60 to 74%; pest or weed control at 35 g/ha [2, 13]: 0 to 29%; pest or weed control at 70 g/ha [2, 13]: 30 to 44%; pest or weed control at 140 g/ha [2, 13]: 45 to 59%; pest or weed control at 35 g/ha [2, 14]: 0 to 29%; pest or weed control at 70 g/ha [2, 14]: 30 to 44%; pest or weed control at 140 g/ha [2, 14]: 45 to 59%
2 | 160 | COC(=O)c1nc(-c2cc3ccoc3cc2F)nc(N)c1OC [Compound 2.05] | 0 to 29 | 0 to 29 | 0 to 29 | 85 to 94 | 75 to 84 | 95 to 100 | 0 to 29 | 0 to 29 | 0 to 29 | 0 to 29 | 0 to 29 | 45 to 59 | 30 to 44 | 30 to 44 | 45 to 59 | 0 to 29 | 0 to 29 | 30 to 44 | 0 to 29 | pest or weed control at 70 g/ha [2, 9]: 0 to 29%; pest or weed control at 140 g/ha [2, 9]: 0 to 29%; pest or weed control at 35 g/ha [2, 10]: 0 to 29%; pest or weed control at 70 g/ha [2, 10]: 0 to 29%; pest or weed control at 140 g/ha [2, 10]: 0 to 29%; pest or weed control at 35 g/ha [2, 11]: 0 to 29%; pest or weed control at 70 g/ha [2, 11]: 0 to 29%; pest or weed control at 140 g/ha [2, 11]: 0 to 29%; pest or weed control at 35 g/ha [2, 12]: 0 to 29%; pest or weed control at 70 g/ha [2, 12]: 0 to 29%; pest or weed control at 140 g/ha [2, 12]: 0 to 29%; pest or weed control at 35 g/ha [2, 13]: 0 to 29%; pest or weed control at 70 g/ha [2, 13]: 0 to 29%; pest or weed control at 140 g/ha [2, 13]: 0 to 29%; pest or weed control at 35 g/ha [2, 14]: 0 to 29%; pest or weed control at 70 g/ha [2, 14]: 0 to 29%; pest or weed control at 140 g/ha [2, 14]: 0 to 29%
3 | 98 | COC(=O)c1nc(-c2cc3ccoc3cc2F)cc(N)c1Cl [Compound 2.04] | 75 to 84 | 85 to 94 | 95 to 100 | 95 to 100 | 95 to 100 | 95 to 100 | 0 to 29 | 0 to 29 | 30 to 44 | 95 to 100 | 95 to 100 | 95 to 100 | 95 to 100 | 95 to 100 | 95 to 100 | 0 to 29 | 0 to 29 | 30 to 44 | 0 to 29 | pest or weed control at 70 g/ha [2, 9]: 0 to 29%; pest or weed control at 140 g/ha [2, 9]: 30 to 44%; pest or weed control at 35 g/ha [2, 10]: 60 to 74%; pest or weed control at 70 g/ha [2, 10]: 95 to 100%; pest or weed control at 140 g/ha [2, 10]: 95 to 100%; pest or weed control at 35 g/ha [2, 11]: 0 to 29%; pest or weed control at 70 g/ha [2, 11]: 0 to 29%; pest or weed control at 140 g/ha [2, 11]: 0 to 29%; pest or weed control at 35 g/ha [2, 12]: 60 to 74%; pest or weed control at 70 g/ha [2, 12]: 75 to 84%; pest or weed control at 140 g/ha [2, 12]: 85 to 94%; pest or weed control at 35 g/ha [2, 13]: 0 to 29%; pest or weed control at 70 g/ha [2, 13]: 30 to 44%; pest or weed control at 140 g/ha [2, 13]: 45 to 59%; pest or weed control at 35 g/ha [2, 14]: 60 to 74%; pest or weed control at 70 g/ha [2, 14]: 75 to 84%; pest or weed control at 140 g/ha [2, 14]: 85 to 94%
